Results reported in patent US20140193455A1, “PHARMACEUTICAL COMPOSITION FOR PREVENTION OR TREATMENT OF STEROID-INDUCED DIABETES AND HEALTH FUNCTIONAL FOOD” (priority 2013, published 2014).

Test system: INS-1 cells
Experiment: Cell counting analysis (trypan blue) of living INS-1 cells
Type: cell-based, rat
Details: for decrease in INS-1 cell survival compared to the control: FIG. 4; for decrease in survival of INS-1 cells compared to control: treated alone
Method: The rat insulin-secreting cell line INS-1 was maintained in RPMI-1640 medium containing 10% heat-inactivated FBS (fetal bovine serum), 100 units/ml of penicillin and 100 μg/ml of streptomycin at 37° C. under the conditions of 95% humidity and 5% CO2.
One day before treatment with reagent or CLCE, INS-1 cells were cultured in a 24-well plate at a concentration of 1×10^5 cells/well in a volume of 500 μL. The INS-1 cells were treated with the indicated concentrations of reagent (Dex, LY294002, IL-1β, STZ, TG or TN) and/or CLCE for the indicated time. At each point of time, the cells were stained with trypan blue dye, and the living INS-1 cells were counted under a microscope. The cell counting was repeated three times. Data were expressed as the mean of three independent experiments.

Row | Molecule | decrease in INS-1 cell survival compared to the control (treated alone for 24 hours) | decrease in survival of INS-1 cells compared to control (FIG. 3) | also measured
1 | CN(N=O)C(=O)N[C@H]1C(O)O[C@H](CO)[C@@H](O)[C@@H]1O (mixture of isomers) [STZ, streptozotocin] | ~82% |  | 
2 | C[C@@H]1C[C@H]2[C@@H]3CCC4=CC(=O)C=C[C@]4(C)[C@@]3(F)[C@@H](O)C[C@]2(C)[C@@]1(O)C(=O)CO [Dex, dexamethasone] |  | about 55% | decrease in survival rate of INS-1 cells (treated alone for 24 hours, FIG. 1A): about 50%
3 | O=c1cc(N2CCOCC2)oc2c(-c3ccccc3)cccc12 [LY294002] |  | about 24% | degree of the decrease in survival of INS-1 cells (combination of Dex and LY294002, FIG. 3): 75%
4 | C/C=C(/C)C(=O)O[C@H]1C(C)=C2[C@H]([C@@H]1OC(=O)CCCCCCC)[C@@](C)(OC(C)=O)C[C@H](OC(=O)CCC)[C@@]1(O)[C@H]2OC(=O)[C@@]1(C)O [TG, thapsigargin] | ~88% |  | 
5 | interleukin-1β [IL-1β] | about 45% |  | 
6 | tunicamycin [TN] | ~50% |  | 
